Data taken from publication PMC12332667, “Role of Structural Modifications in Peptidomimetic Compounds as Potential Antimicrobial Agents against Staphylococcus aureus and Streptococcus pyogenes: Balancing Bioavailability, Safety, and Antimicrobial Activity” (ACS Omega, 2025).
In brackets after ≈: the same amount, converted by molar mass.

Test system: S. intemrdius c.i.
Assay: MIC/MBC broth microdilution, S. intermedius
Assay type: cell-based, Staphylococcus intermedius
In short: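 Bacteria inoculated at about 10^5 CFU/mL in BHI broth and incubated 18 h at 37 °C with serial dilutions of peptidomimetics, NCCLS microdilution format. MBC taken as lowest concentration leaving no more than 3 colonies (≥99.9% kill); MIC as lowest concentration without obvious growth (≥90% of untreated); solvent controls included.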

| SMILES | MBC (H2O) [µg/mL] | MIC (H2O) [µg/mL] | MBC (water additive DMSO) [µg/mL] | MIC (water additive DMSO) [µg/mL] | MBC (water additive EtOH) [µg/mL] | MIC (water additive EtOH) [µg/mL] |
| --- | --- | --- | --- | --- | --- | --- |
| CC(C)[C@@H](CNC(=O)C(=Cc1ccccc1)c1ccccc1)NC(=O)[C@H](CCCNC(=N)N)NC(=O)[C@H](CCCCNC(=N)N)NC(=O)OCc1ccccc1 [Compound A-192] | 16 (≈ 20.8 µM) | 8 (≈ 10.4 µM) | 16 (≈ 20.8 µM) | 8 (≈ 10.4 µM) | 16 (≈ 20.8 µM) | 8 (≈ 10.4 µM) |
| CC(C)[C@@H](CNC(=O)C(=Cc1ccccc1)c1ccccc1)NC(=O)[C@H](Cc1c[nH]cn1)NC(=O)[C@H](CCCCNC(=N)N)NC(=O)OCc1ccccc1 [Compound A-193] | 32 (≈ 42.7 µM) | 16 (≈ 21.3 µM) | – | 32 (≈ 42.7 µM) | 32 (≈ 42.7 µM) | 16 (≈ 21.3 µM) |
